The record followed here is patent US7320804B2, “Cough depressant composition containing iron for angiotensin-converting enzyme inhibitor inducing cough” (Samsung Life Public Welfare Foundation Samsund Medical …, priority 2000, dated 2008).

The assay deals with ACEI-induced cough. The following applies: for Change of cough score, treatment versus observation period (in words): Wilcoxon's signed rank sum test, iron taking group; for Degree of cough, mean daily cough score: 10 patients on ACEI, observation period 6.14 ± 1.41. On the procedure: The research pertaining to the ACEI-induced cough depressant effect by the iron was carried out with nineteen patients taking ACEI. These subjects were patients who developed cough as a result of the side effect caused by taking ACEI. The experiment period was divided into the observation period and the treatment period. 10 of the patients took iron and 9 of the patients took placebo.
The effect of the cough depressant containing iron of the present invention was tested. The cough depressant composition used in the test was ferrous sulphate. Anemia medicine sold as Feroba (trademark), whose ferrous sulphate was removed, was used as the placebo. The 19 tested patients had developed persistent dry cough while taking ACEI for various reasons. They include 6 men and 13 women, whose mean age was 59.9±12.2 years. The patients were divided into groups; the treatment group, which comprised 10 patients taking iron, and the control group, comprising 9 patients taking placebo. The characteristics of the patients are denoted in Table 1. All the patients gave informed consent, and the test was approved by the ethical committee of the Samsung Medical Center and Samsung Biomedical Research Center, Seoul, Korea.
ACEI-induced cough was defined as dry cough that occurred with ACEI use that subsided in seven days after discontinuation of the drug, and reappeared within 48 hours after the re-introduction of the drug and with no abnormality in the lungs and the bronchi.
19 patients completed a cough diary during a 2-week observation period while taking ACEI only. […] Each day was divided into two 12-hour periods. The daytime period began at 8 A.M., and the nighttime period, vice versa. Patients recorded the cough score for each period.
At the end of the observation period, blood samples were drawn from the patient for evaluation of hemoglobin level, hematocrit, iron concentration, total iron binding capacity (“TIBC”), and ferritin concentration. After sampling, they were randomized to either an iron taking group or placebo taking group. 256 mg of ferrous sulfate (of which 80 mg is ferrate) was daily administered to the iron taking group. During the four weeks of the treatment period, subjects were asked to fill in a cough diary in the identical way that they completed the diary in the observation period. After four weeks of the treatment period, blood sampling was repeated for the same evaluation (hemoglobin level, hematocrit, iron concentration, total iron binding capacity (“TIBC”) and ferritin concentration) that was performed in the initiation of the treatment period.
Cough scores from the last week of the observation period and the last week of the treatment period were compared and evaluated. The total sum of the cough scores were calculated from cough scores during the daytime and the nighttime recorded from the range of 0 to 4 for the last week of the observation period and the treatment period, and mean daily cough scores were calculated by dividing the total amount by days. Also, the cough score during the daytime and the nighttime was compared separately. […] The two groups were compared using Wilcoxon's signed rank sum test.

SMILES strings stand for the structures. Where two headings read alike, the source gives them in different places.

Regarding `O=S(=O)([O-])[O-].[Fe+2]` [Iron, ferrous sulphate], the “Change of cough score, treatment versus observation period (in words)” value (listed as ferrous sulphate) was “significantly reduced” and the “Change of cough score, treatment versus observation period (in words)” value (listed as iron) is “significant reduction of dry cough”. The “Degree of cough, mean daily cough score” value amounted to 3.39 ± 2.20 score (last week of 4-week treatment period, 256 mg ferrous sulfate daily, mean ± SD) and 3.39±2.20 score (last week of 4-week treatment period, 256 mg ferrous sulfate daily, mean ± SD, listed as iron). Moreover, the “Degree of cough, daytime cough score” value (last week of 4-week treatment period, 256 mg ferrous sulfate daily, mean ± SD, observation period 2.86 ± 0.86) was determined as 1.51 ± 1.00 score. Besides, the “Degree of cough, nighttime cough score” value (last week of 4-week treatment period, 256 mg ferrous sulfate daily, mean ± SD, observation period 3.29 ± 0.73) is 1.87 ± 1.24 score. For the setting “of 10 patients in the iron taking group”, the “Number of patients showing almost complete abolishment of cough” value is given as “three”. The “Number of patients showing reduction in cough (decrease in cough score)” value (of 10 patients who took iron, treatment versus observation period) is reported as 9 patients.
